Experiments:
DPPH radical scavenging = type: physicochemical; settings: vs no-compound group
Description: DPPH is a commercially available stable organic nitrogen radical with maximum UV absorption at 515 nm. After reduction, the color of the solution fades (absorbance decreases). Therefore, this method was used to evaluate the antioxidant capacity of the compounds. In short, 50 μL of DPPH (140 μM) and 50 μL of different concentrations (10, 100, and 1000 μM) of compound 4h were added together in a 96-well plate and then incubated in the dark at 37 °C for 2 h. The absorbance was measured at 515 nm through the multifunctional microplate reader. The scavenging rate (SR) of DPPH radicals was calculated by the following formula: SR = (1 − Ac/A0) × 100%, where “Ac” is the absorbance of DPPH and the compound solution incubating, and “A0” is the absorbance of the DPPH radical-ethanol solution alone. The experimental results are expressed as the average of three tests.

PC12 cells = experiment: Cytotoxicity in PC12 cells (MTT); type: cell-based
Description: The cytotoxicity and neuroprotective effects of the compounds on PC12 cells were evaluated by MTT assay. PC12 cells were seeded into a 96-well plate at a density of 5.0 × 10^3 cells per well. After the cells were incubated overnight, the old medium was discarded. The cells were incubated for another 24 h with fresh medium containing compounds at a concentration of 30 or 50 μM. A total of 20 μL of MTT solution (5 mg/mL, Sigma-Aldrich, Shanghai, China) was then added per well, and the cells were incubated for an additional 4 h. Afterwards, the supernatant was removed and 150 μL of DMSO was added to solubilize formazan crystals. The 96-well plate was placed on the shaker for 10–15 min, and then the absorbance at 492 nm was measured by a microplate reader.

[1] = test system: adjuvant-induced arthritis (AIA) rats; parameters: method as in PMID 36450214; settings: cited from earlier work
H2O2-induced PC12 cells = experiment: Neuroprotection against H2O2-induced PC12 cell injury (MTT); type: cell-based; settings: H2O2 250 μM, mean ± SEM
Description: Neuroprotection assay is similar to cytotoxicity. Oxidative cellular damage caused by H2O2 has become one of the important methods to study oxidative damage in neural cells. PC12 cells were seeded into a 96-well plate at a density of 5.0 × 10^3 cells per well. After the cells were incubated overnight, the old medium was discarded. […] After incubating overnight, 20 μL of MTT solution (5 mg/mL, Sigma-Aldrich) was added per well, and the cells were incubated for an additional 4 h. Afterwards, the supernatant was removed and 150 μL of DMSO was added. The 96-well plate was placed on the shaker for 10–15 min, and then the absorbance at 492 nm was measured by a microplate reader.

[2] = molecular target: T1, BuChE (from equine serum) (Equus caballus, UniProt P81908); experiment: biochemical; settings: mean ± SD of three experiments, read-out: BuChE Inhibition (IC50)
T1 construct: BuChE (from equine serum); purchased Sigma Chemical Company (St. Louis, MO, USA); host or cells: equine serum
T1 sequence (P81908 whole entry): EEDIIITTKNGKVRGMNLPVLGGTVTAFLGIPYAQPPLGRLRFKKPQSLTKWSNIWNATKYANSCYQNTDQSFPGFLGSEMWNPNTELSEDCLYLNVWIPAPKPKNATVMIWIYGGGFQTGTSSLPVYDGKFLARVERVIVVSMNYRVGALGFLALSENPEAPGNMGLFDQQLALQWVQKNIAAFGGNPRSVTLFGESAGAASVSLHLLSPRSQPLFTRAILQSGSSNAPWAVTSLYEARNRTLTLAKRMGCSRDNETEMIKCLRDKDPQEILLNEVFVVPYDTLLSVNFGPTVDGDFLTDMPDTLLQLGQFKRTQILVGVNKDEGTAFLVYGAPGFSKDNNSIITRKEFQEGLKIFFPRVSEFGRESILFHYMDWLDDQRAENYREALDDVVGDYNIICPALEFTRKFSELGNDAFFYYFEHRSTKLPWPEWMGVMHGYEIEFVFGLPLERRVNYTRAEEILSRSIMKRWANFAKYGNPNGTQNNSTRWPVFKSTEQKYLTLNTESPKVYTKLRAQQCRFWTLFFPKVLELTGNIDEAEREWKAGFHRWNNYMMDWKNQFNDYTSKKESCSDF
Description: (§1) The ChE inhibitory activity of the test compounds was determined using the modified Ellman’s method. The compounds were dissolved in DMSO (10 mmol/L) and then diluted with PB (phosphate buffer) solution to attain a range of final concentrations. […] Briefly, 100 μL of different concentrations of the test or standard compounds and 100 μL of AChE/BuChE (0.5 U/mL) were added into 48-well plates and then co-incubated at 37 °C for 30 min. […] All concentrations mentioned are final.

AChE (from electric eel) = molecular target: T2, AChE (from electric eel) (Electrophorus electricus, UniProt O42275); experiment: biochemical; settings: for IC50: AChE from electric eel, mean ± SD of three experiments, read-out: AChE Inhibition (IC50); for Selective Index, IC50 (BChE)/IC50 (AChE): AChE selectivity index
T2 construct: AChE (from electric eel); purchased Sigma Chemical Company (St. Louis, MO, USA)
T2 sequence (O42275 24-633): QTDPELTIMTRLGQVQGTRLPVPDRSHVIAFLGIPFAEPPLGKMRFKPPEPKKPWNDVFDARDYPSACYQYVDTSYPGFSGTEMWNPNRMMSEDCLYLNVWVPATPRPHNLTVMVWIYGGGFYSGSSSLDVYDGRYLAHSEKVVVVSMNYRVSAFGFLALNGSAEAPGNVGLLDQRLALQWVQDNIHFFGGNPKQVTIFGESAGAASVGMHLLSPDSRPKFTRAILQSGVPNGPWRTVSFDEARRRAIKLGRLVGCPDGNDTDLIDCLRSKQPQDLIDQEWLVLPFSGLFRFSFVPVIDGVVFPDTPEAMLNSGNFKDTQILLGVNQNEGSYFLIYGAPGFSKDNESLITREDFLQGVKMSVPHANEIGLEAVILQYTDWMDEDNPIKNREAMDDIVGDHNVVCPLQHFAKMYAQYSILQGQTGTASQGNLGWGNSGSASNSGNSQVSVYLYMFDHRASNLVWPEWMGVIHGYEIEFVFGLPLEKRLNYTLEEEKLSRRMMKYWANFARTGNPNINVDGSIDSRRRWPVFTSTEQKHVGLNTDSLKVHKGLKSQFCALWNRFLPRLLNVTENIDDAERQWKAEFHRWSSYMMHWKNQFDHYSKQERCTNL
Description: as §1

Aβ1-42 = Aβ1-42 (Homo sapiens, UniProt P05067); experiment: Self-induced Aβ1-42 aggregation, thioflavin T fluorescence; type: biochemical; parameters: final concentrations of 20 μM of Aβ1-42 and 100 μM of test compound; purchased Beyotime Institute of Biotechnology; settings: read-out: Inhibition of Self-Induced Aβ Aggregation (%)
Chain of Aβ1-42 (P05067 672-713 limits assumed): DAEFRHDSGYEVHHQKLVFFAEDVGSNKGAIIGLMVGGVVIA
Description: The inhibitory effect of compounds on Aβ42 was determined by Thioflavin T (ThT) fluorescence assay. In short, the dilution of Aβ42 solution (Beyotime Biotechnology, Hang Zhou, China) and test compounds was carried out with phosphate buffer (50 mM, pH 7.4) to obtain final concentrations of 20 μM of Aβ1-42 and 100 μM of test compound, such as curcumin (20 μM). The mixture was incubated in 96-well plates at room temperature for 48 h in the dark. When the incubation was complete, the samples were diluted to 200 µL (final volume) with glycine–NaOH buffer (50 mM, pH 8.0) containing 5 μM ThT.

BuChE = molecular target: T3, BuChE (Equus caballus, UniProt P81908); experiment: Reversibility of BuChE inhibition, dilution method; type: biochemical; settings: control 100
T3 construct: BuChE (from equine serum); purchased Sigma Chemical Company (St. Louis, MO, USA); host or cells: equine serum
T3 sequence (P81908 whole entry): as the sequence (P81908 whole entry) above
Description: The activities of the diluted residual enzymes were measured by Ellman’s modified method.
Reversibility studies were performed using a modified Ellman’s dilution method to measure the activity of the diluted residual enzyme. The AChE/BuChE (0.5 U/mL), ATCI/BTCI (0.01 M) and DTNB (0.01 M) were diluted with phosphate buffer pH = 7.4. […] At the end of incubation, 20 μL of DTNB solution was added to them. […] All the measured results are expressed as the mean ± SEM of the three independent experiments.

in vitro = in vitro ADME, SD rats; settings: SD rat liver microsomes
Description: The incubation was terminated at different time points by adding 0.5 mL of ice-cold CH3CN. A parallel incubation was performed in the absence of a NADPH-regenerating system with microsomes as the negative control, and the reactions were terminated after the corresponding time incubation. After centrifugation with 12,500 rpm at 4 °C for 10 min, the supernatant was directly analyzed by the HPLC UV systems (Agilent HPLC 1200 instrument). Three independent experiments were performed in triplicate.

SY5Y cells = experiment: H2O2-induced intracellular ROS in SY5Y cells (DCFH-DA); type: cell-based; settings: 100 μM, vs untreated control 100, H2O2 group 151.76
Description: A 2’, 7’-dichlorofluorescein diacetate (DCFH-DA, Sigma Aldrich) probe was applied to determine intracellular ROS production. It can penetrate cells and be rapidly oxidized by intracellular ROS to highly fluorescent 2′,7′-dichlorofluorescein (DCF). Intracellular fluorescence intensity is proportional to intracellular ROS levels. PC12 cells or SY5Y cells were seeded into a black 96-well plate at a density of 1.0 × 10^4 cells per well. After the cells were incubated overnight, the old medium was discarded. PC12 cells or SY5Y cells were cultured in a medium containing test compound 4h with or without various concentrations (1, 7.5, 15, 30, and 50 μM) for 6 h. […] Then, they were washed again with PBS, then DCFH-DA […] probe was added to each well and incubated at 37 °C for 1 h. After the cells were washed 3 times, the fluorescence intensity was measured in a Synergy HTX fluorescence microplate reader (λex = 485 nm, λem = 528 nm).

SMILES	Cell Viability (% of Control) (PC12 cells; compound 30 μM)	Cell Viability (% of Control) (PC12 cells; compound 50 μM)	H2O2-Induced PC12 Cell Viability (% of Control) (H2O2-induced PC12 cells; compound 10 μM)	H2O2-Induced PC12 Cell Viability (% of Control) (H2O2-induced PC12 cells; compound 30 μM)	IC50 [2] [µM]	IC50 (AChE (from electric eel)) [µM]	also measured
O=C1O[C@H]([C@@H](O)CO)C(O)=C1O [AA, Ascorbic acid, reference compound]	–	–	–	–	–	–	Concentration of DPPH (%) (DPPH radical scavenging; 10 μM compound): 77.43 ± 2.76%; Concentration of DPPH (%) (DPPH radical scavenging; 100 μM compound): 58.10 ± 3.42%; Concentration of DPPH (%) (DPPH radical scavenging; 1000 μM compound): 24.2 ± 1.85%
COc1ccc(S(=O)(=O)Nc2ccc3nc4n(c(=O)c3c2)-c2ccccc2C4=O)cc1 [8j]	99.9 ± 1.5 % of Control	98.9 ± 2.1 % of Control	38.02 ± 3.1 % of Control	47.36 ± 6.1 % of Control	10.2 ± 2.41	> 50	Anti-inflammatory activity in the AIA model [1]: exhibited good anti-inflammatory activity in the AIA model
COc1cc(/C=C/C(=O)CC(=O)/C=C/c2ccc(O)c(OC)c2)ccc1O [Curcumin]	–	–	–	–	–	–	inhibition at 20 µM (Aβ1-42; curcumin 20 μM (text b32), ThT, 48 h): 55.4 ± 2.31%
COc1cc2c(cc1OC)C(=O)C(CC1CCN(Cc3ccccc3)CC1)C2 (stereo not shown) [Donepezil, reference compound]	–	–	–	–	–	–	inhibition at 100 µM (Aβ1-42): 41.2 ± 1.87%; BuChE activity after dilution (reversibility) (BuChE; final inhibitor 0.1 × IC50 after 100-fold dilution): 94.1 ± 0.61; BuChE activity after dilution (reversibility) (BuChE; final inhibitor 1 × IC50 after 100-fold dilution): 89.4 ± 1.49
C[C@]12CC[C@H]3[C@@H](CCC4=CC(=O)CC[C@@]43C)[C@@H]1CC[C@@H]2O [Testosterone, reference compound]	–	–	–	–	–	–	K (in vitro): 0.2593 ± 0.04409 min⁻¹; T1/2 (in vitro): 2.4 ± 0.5 min
Cc1c(C)c2c(c(C)c1O)CCC(C)(C(=O)O)O2 (stereo not shown) [Trolox]	–	–	–	–	–	–	ROS in SY5Y cells (%) (SY5Y cells): 126.06 ± 2.68%
O=C1c2cc(NS(=O)(=O)c3c(Cl)cccc3Cl)ccc2-n2c1nc1ccccc1c2=O [4p]	99.6 ± 2.7 % of Control	99.3 ± 2.9 % of Control	48.49 ± 4.5 % of Control	65.6 ± 2.2 % of Control	> 50	0.62 ± 0.09	–
O=C1c2ccccc2-n2c1nc1ccc(NS(=O)(=O)c3ccc(Br)cc3)cc1c2=O [8e]	99.8 ± 0.7 % of Control	99.7 ± 3.1 % of Control	41.78 ± 1.2 % of Control	55.86 ± 0.9 % of Control	> 50	> 50	–
O=C1c2cc(NS(=O)(=O)c3ccccc3C(F)(F)F)ccc2-n2c1nc1ccccc1c2=O [4o]	99.6 ± 2.7 % of Control	98.2 ± 1.7 % of Control	42.32 ± 0.7 % of Control	50.5 ± 0.5 % of Control	8.61 ± 1.2	2.45 ± 0.25	Selective Index, IC50 (BChE)/IC50 (AChE) (AChE (from electric eel)): 3.5
O=C1c2cc(NS(=O)(=O)c3cccc(F)c3)ccc2-n2c1nc1ccccc1c2=O [4g]	100 ± 1.3 % of Control	99.7 ± 0.8 % of Control	59.88 ± 0.9 % of Control	68.83 ± 2.7 % of Control	21.6 ± 1.79	3.21 ± 0.39	Selective Index, IC50 (BChE)/IC50 (AChE) (AChE (from electric eel)): 6.7
CC(=O)Nc1ccc(S(=O)(=O)Nc2ccc3nc4n(c(=O)c3c2)-c2ccccc2C4=O)cc1 [8i]	99.8 ± 1.2 % of Control	99.4 ± 1.3 % of Control	48.46 ± 1.6 % of Control	59.63 ± 2.5 % of Control	25.9 ± 2.38	> 50	–
COc1ccc(S(=O)(=O)Nc2ccc3nc4n(c(=O)c3c2)-c2ccccc2C4=O)c(OC)c1 [8l]	99.4 ± 1.1 % of Control	98.7 ± 1.3 % of Control	34.61 ± 3.7 % of Control	38.1 ± 2.7 % of Control	> 50	> 50	–
O=C1c2ccccc2-n2c1nc1ccc(NS(=O)(=O)c3ccccc3OC(F)(F)F)cc1c2=O [8n]	99.2 ± 1.9 % of Control	98.3 ± 2.7 % of Control	38.94 ± 1.5 % of Control	49.96 ± 0.8 % of Control	> 50	42 ± 1.7	–
O=C1c2ccccc2-n2c1nc1ccc(NS(=O)(=O)c3ccc(OC(F)(F)F)cc3)cc1c2=O [8m]	99.5 ± 3.1 % of Control	98.2 ± 1.7 % of Control	44.67 ± 2.3 % of Control	53.92 ± 3.9 % of Control	> 50	> 50	–
CC(C)c1cc(C(C)C)c(S(=O)(=O)Nc2ccc3nc4n(c(=O)c3c2)-c2ccccc2C4=O)c(C(C)C)c1 [8d]	99.8 ± 0.7 % of Control	98.7 ± 2.6 % of Control	39.65 ± 5.2 % of Control	53.26 ± 1.4 % of Control	> 50	> 50	–

— PMC10610214 (Pharmaceuticals, 2023)
